{
  "source": "ChEMBL document CHEMBL5291721",
  "about": "“A preclinical secondary pharmacology resource illuminates target-adverse drug reaction associations of marketed drugs” (Nat Commun, 2023); note: assay procedure not described here",
  "key": {"Thromboxane A2 receptor [1]": {"biological_target": "T1, Thromboxane A2 receptor (Homo sapiens, UniProt P21731)", "T1 sequence (P21731 whole entry)": "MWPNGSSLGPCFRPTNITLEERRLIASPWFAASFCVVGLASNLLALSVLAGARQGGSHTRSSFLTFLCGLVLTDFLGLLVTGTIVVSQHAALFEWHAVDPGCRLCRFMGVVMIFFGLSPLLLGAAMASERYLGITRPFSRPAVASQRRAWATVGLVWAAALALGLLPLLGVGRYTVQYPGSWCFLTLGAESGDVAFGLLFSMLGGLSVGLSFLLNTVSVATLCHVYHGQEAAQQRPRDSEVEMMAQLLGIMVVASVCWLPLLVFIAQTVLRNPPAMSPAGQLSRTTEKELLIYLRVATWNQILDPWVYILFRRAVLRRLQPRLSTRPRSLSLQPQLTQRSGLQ", "type": "functional"}, "D(1A) dopamine receptor [2]": {"biological_target": "T2, D(1A) dopamine receptor (Homo sapiens, UniProt P21728)", "T2 sequence (P21728 whole entry)": "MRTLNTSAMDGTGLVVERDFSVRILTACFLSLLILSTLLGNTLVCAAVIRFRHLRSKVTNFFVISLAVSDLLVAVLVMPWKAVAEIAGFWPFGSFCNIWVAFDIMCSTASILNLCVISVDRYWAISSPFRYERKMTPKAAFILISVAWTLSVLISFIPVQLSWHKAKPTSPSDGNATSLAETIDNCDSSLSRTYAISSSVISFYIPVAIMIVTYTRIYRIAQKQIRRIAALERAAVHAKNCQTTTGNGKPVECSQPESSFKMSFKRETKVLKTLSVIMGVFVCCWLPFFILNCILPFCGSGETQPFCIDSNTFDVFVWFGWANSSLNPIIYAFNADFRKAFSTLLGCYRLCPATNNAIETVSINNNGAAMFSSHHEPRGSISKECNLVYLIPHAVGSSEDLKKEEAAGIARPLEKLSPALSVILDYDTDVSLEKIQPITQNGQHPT"}, "[3]": {"biological_target": "Vascular endothelial growth factor receptor 2 (Homo sapiens, UniProt P35968)", "sequence (P35968 whole entry)": "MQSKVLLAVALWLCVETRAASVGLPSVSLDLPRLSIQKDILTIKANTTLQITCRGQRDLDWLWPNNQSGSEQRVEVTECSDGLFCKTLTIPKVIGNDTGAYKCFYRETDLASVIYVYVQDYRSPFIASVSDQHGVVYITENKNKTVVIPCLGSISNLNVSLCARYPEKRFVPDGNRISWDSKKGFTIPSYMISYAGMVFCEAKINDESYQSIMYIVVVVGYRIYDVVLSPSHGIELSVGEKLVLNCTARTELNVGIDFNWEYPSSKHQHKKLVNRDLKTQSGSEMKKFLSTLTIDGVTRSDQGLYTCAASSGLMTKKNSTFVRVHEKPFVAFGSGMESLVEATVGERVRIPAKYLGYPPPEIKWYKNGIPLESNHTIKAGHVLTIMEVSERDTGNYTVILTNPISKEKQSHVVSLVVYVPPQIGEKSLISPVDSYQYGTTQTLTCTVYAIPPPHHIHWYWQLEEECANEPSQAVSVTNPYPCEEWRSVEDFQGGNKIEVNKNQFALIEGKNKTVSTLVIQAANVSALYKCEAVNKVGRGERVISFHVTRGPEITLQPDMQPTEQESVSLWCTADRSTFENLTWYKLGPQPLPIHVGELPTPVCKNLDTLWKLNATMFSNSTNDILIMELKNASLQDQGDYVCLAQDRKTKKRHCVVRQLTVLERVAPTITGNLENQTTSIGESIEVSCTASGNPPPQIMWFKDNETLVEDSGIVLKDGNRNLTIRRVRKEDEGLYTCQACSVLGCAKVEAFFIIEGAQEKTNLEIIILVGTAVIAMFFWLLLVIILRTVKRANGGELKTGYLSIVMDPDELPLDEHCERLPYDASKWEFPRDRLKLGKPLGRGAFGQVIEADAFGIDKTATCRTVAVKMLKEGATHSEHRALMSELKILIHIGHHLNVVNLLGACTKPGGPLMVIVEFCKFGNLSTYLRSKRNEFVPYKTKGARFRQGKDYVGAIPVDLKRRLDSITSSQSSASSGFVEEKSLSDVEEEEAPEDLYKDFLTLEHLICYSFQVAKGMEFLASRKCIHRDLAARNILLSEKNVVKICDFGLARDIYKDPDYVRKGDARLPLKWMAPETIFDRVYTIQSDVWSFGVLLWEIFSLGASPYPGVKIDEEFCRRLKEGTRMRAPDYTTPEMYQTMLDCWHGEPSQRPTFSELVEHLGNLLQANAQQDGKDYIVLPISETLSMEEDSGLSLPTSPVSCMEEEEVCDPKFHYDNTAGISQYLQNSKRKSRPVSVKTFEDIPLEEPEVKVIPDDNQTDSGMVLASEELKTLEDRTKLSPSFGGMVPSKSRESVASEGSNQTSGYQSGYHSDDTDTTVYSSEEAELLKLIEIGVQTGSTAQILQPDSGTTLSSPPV", "type": "functional"}, "[4]": {"biological_target": "T3, Muscarinic acetylcholine receptor M1 (Homo sapiens, UniProt P11229)", "T3 sequence (P11229 whole entry)": "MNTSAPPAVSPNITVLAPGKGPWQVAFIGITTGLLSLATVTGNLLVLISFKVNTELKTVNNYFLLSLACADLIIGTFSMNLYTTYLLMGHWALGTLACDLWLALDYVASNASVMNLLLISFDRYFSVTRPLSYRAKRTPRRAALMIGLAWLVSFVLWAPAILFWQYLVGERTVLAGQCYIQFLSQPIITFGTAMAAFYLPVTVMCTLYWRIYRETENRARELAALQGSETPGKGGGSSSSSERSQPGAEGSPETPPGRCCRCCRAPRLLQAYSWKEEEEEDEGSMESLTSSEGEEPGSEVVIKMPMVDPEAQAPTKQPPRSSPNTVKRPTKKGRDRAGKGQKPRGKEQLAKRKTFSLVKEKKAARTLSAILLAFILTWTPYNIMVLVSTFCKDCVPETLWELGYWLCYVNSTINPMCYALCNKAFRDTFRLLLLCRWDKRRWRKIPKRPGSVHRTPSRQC", "type": "functional, cell-based"}, "[5]": {"biological_target": "Sodium-dependent serotonin transporter (Homo sapiens, UniProt P31645)", "sequence (P31645 whole entry)": "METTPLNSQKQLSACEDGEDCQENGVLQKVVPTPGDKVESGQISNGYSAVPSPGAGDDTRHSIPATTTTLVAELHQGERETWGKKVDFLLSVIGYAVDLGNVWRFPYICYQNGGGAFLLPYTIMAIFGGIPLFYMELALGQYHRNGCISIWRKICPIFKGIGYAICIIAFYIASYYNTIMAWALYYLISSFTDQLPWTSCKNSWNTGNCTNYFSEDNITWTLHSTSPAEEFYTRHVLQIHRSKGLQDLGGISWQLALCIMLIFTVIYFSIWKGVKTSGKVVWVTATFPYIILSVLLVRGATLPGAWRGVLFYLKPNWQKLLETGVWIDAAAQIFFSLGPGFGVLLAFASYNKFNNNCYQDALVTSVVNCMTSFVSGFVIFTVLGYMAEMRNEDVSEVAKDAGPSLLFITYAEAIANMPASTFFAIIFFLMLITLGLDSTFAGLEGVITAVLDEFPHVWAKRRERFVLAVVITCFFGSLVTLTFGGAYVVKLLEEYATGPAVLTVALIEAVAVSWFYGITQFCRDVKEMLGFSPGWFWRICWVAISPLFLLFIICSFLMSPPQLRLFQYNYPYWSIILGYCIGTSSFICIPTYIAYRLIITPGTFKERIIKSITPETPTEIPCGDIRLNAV"}, "Mu-type opioid receptor": {"biological_target": "Mu-type opioid receptor (Homo sapiens, UniProt P35372)", "sequence (P35372 whole entry)": "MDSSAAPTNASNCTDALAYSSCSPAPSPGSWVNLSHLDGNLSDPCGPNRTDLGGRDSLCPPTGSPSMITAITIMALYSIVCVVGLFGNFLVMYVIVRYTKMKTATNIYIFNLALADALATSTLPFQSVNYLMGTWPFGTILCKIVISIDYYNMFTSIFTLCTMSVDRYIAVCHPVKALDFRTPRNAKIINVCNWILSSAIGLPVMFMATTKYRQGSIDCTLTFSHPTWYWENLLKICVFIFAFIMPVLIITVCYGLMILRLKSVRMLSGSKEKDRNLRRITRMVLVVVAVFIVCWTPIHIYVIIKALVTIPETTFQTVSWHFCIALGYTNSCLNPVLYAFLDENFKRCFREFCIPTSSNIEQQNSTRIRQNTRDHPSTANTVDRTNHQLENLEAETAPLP"}, "Thromboxane A2 receptor [6]": {"biological_target": "T1, Thromboxane A2 receptor", "type": "functional, cell-based"}, "D(1A) dopamine receptor [7]": {"biological_target": "T2, D(1A) dopamine receptor", "remark": "listed apart in the source"}, "Androgen receptor": {"biological_target": "T4, Androgen receptor (Homo sapiens, UniProt P10275)", "T4 sequence (P10275 whole entry)": "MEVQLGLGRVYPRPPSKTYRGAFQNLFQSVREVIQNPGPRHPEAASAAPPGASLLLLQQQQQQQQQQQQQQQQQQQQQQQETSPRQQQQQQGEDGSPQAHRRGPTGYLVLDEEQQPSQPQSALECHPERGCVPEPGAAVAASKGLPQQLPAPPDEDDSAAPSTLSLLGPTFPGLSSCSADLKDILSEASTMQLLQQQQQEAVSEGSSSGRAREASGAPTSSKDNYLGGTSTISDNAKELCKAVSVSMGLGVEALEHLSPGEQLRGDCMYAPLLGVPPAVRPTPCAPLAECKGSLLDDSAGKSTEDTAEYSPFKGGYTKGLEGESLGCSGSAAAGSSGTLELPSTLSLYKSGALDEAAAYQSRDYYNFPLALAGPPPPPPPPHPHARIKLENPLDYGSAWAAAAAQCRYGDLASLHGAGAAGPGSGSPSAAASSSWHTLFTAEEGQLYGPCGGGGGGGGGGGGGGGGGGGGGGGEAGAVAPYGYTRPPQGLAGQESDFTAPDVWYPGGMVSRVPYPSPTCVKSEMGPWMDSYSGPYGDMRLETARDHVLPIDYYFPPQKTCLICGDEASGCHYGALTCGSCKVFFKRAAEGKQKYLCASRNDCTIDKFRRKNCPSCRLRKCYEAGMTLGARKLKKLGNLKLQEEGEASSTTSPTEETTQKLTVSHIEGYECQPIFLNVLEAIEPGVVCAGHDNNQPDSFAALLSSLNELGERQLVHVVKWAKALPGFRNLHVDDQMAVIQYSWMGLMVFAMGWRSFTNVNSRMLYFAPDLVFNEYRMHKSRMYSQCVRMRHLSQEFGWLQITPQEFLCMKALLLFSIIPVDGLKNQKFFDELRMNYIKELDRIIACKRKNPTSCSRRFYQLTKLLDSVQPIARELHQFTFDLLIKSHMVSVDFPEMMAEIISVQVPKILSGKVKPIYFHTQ"}, "Histamine H1 receptor": {"biological_target": "Histamine H1 receptor (Homo sapiens, UniProt P35367)", "sequence (P35367 whole entry)": "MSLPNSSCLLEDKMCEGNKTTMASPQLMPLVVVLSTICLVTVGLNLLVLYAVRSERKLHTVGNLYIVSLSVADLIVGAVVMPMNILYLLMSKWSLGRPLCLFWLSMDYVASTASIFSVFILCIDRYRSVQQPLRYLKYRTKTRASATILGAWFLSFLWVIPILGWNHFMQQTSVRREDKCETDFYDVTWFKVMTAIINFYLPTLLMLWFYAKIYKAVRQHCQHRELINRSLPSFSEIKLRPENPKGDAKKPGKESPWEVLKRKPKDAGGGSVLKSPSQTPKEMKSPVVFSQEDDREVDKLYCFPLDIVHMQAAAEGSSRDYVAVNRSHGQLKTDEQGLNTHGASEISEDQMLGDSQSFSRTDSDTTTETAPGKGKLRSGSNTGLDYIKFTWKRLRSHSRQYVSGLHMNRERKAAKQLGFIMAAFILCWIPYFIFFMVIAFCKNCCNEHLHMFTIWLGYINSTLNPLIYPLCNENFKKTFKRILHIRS", "type": "functional, cell-based"}, "Cannabinoid receptor 1": {"biological_target": "Cannabinoid receptor 1 (Homo sapiens, UniProt P21554)", "sequence (P21554 whole entry)": "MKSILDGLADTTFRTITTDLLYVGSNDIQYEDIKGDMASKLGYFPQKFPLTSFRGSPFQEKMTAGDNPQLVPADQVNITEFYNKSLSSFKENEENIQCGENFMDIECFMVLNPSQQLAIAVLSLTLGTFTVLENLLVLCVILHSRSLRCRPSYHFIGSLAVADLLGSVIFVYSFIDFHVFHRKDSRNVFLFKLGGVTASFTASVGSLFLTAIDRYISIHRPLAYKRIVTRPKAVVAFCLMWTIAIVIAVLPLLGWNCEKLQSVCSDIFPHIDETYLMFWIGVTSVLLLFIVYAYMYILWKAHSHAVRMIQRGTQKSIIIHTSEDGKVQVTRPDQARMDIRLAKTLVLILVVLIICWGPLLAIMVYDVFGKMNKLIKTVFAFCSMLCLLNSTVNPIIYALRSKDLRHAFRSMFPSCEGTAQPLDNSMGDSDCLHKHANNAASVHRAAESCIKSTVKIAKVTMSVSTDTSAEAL", "type": "functional"}, "[8]": {"biological_target": "Gamma-aminobutyric acid type B receptor subunit 1 (Homo sapiens, UniProt Q9UBS5)", "sequence (Q9UBS5 whole entry)": "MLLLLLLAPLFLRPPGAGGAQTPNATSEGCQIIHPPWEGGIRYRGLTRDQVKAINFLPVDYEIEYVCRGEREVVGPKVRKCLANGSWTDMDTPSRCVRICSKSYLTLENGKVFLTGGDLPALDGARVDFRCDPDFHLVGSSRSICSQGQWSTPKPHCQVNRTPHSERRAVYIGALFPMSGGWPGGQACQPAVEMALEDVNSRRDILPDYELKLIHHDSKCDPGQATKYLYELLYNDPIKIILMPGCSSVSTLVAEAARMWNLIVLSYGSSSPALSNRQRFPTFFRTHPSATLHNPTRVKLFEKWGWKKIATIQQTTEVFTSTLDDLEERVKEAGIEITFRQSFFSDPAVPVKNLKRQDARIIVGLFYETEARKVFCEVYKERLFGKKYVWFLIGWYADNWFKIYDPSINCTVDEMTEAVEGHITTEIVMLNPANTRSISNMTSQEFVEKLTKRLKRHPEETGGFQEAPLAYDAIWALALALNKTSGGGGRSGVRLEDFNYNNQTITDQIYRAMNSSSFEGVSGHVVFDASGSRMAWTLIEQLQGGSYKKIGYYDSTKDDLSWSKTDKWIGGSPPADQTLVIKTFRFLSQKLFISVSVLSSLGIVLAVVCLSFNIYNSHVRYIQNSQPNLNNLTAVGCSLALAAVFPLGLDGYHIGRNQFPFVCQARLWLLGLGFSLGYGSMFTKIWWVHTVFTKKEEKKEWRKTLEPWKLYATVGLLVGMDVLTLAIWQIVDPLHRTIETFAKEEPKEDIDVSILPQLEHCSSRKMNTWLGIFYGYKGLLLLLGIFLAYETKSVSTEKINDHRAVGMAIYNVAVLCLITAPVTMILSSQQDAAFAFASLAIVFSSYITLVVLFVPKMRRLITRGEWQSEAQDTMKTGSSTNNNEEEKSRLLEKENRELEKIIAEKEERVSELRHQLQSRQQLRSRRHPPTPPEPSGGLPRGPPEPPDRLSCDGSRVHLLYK"}},
  "data": [
    {"compound": "THIMEROSAL", "values": [
      {"measurement": "AC50", "setting": "Thromboxane A2 receptor [1]", "result": "> 30", "unit": "µM"},
      {"measurement": "AC50", "setting": "D(1A) dopamine receptor [2]", "result": 10, "unit": "µM"}
    ]},
    {"compound": "CO[C@]12C[C@@H](COC(=O)c3cncc(Br)c3)CN(C)[C@@H]1Cc1cn(C)c3cccc2c13", "note": "[NICERGOLINE]", "values": [
      {"measurement": "AC50", "setting": "[3]", "result": "> 30", "unit": "µM"},
      {"measurement": "AC50", "setting": "[4]", "result": 1.86, "unit": "µM"},
      {"measurement": "AC50", "setting": "[5]", "result": 7.26, "unit": "µM"},
      {"measurement": "AC50", "setting": "Mu-type opioid receptor", "result": 2.38, "unit": "µM"},
      {"measurement": "AC50", "setting": "Thromboxane A2 receptor [6]", "result": 7.6, "unit": "µM"},
      {"measurement": "AC50", "setting": "D(1A) dopamine receptor [7]", "result": 0.393, "unit": "µM"},
      {"measurement": "AC50", "setting": "Androgen receptor", "result": "> 30", "unit": "µM"}
    ]},
    {"compound": "NC(=O)CN1CC(O)CC1=O", "note": "(configuration not stated) [OXIRACETAM]", "values": [
      {"measurement": "AC50", "setting": "Histamine H1 receptor", "result": "> 30", "unit": "µM"}
    ]},
    {"compound": "Cc1c(OCC(F)(F)F)ccnc1C[S+]([O-])c1nc2ccccc2[nH]1", "note": "(configuration not stated) [LANSOPRAZOLE]", "values": [
      {"measurement": "AC50", "setting": "Cannabinoid receptor 1", "result": "> 10", "unit": "µM"},
      {"measurement": "AC50", "setting": "[8]", "result": "> 10", "unit": "µM"}
    ]}
  ]
}
